Assays:
Cytochrome P450 1A2 = molecular target: T1, Cytochrome P450 1A2 (Homo sapiens, UniProt P05177); test: Inhibition of human recombinant CYP1A2 EROD activity expressed in Escherichia coli JM109 assessed as inhibition of de-ethylation of 7-ethoxyresorufin to resorufin by spectrofluorometric analysis; format: ADME
T1 sequence (P05177 whole entry): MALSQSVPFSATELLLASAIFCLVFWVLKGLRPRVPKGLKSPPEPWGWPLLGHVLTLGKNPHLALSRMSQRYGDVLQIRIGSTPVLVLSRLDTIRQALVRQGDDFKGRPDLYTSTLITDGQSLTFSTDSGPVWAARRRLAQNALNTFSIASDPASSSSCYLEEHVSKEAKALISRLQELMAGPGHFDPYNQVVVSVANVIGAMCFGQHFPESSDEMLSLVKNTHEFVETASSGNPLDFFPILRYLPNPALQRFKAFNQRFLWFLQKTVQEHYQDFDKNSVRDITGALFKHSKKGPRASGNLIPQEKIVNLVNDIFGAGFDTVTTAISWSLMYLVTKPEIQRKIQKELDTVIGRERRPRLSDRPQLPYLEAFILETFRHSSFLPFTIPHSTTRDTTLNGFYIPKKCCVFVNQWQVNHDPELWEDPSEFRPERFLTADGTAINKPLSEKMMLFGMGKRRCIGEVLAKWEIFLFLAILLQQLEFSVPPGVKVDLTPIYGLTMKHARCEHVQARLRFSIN

CYP1A2 = molecular target: T2, CYP1A2 (Homo sapiens, UniProt P05177); test: Inhibition of human recombinant CYP1A2 EROD activity expressed in Escherichia coli JM109 assessed as inhibition of de-ethylation of 7-ethoxyresorufin to resorufin at 0.3 uM by spectrofluorometric analysis; format: ADME; settings: recombinant human CYP1A2 expressed in Escherichia coli JM109, probe 7-ethoxyresorufin
T2 sequence (P05177 whole entry): T1 sequence (P05177 whole entry)

| Structure (SMILES) | IC50 (Cytochrome P450 1A2) | inhibition at 0.3 µM (CYP1A2) |
| --- | --- | --- |
| COc1ccc(Nc2nc(-c3cccs3)cs2)cc1 | 72 nM | > 50% |
| O=[N+]([O-])c1ccc2nc3c(nc2c1)-c1cccc2cccc-3c12 | 21 nM | > 50% |
| CN1C(=O)/C(=C2\NC(=S)NC2=O)c2cc(Br)ccc21 | 49 nM | > 50% |
| COc1ccc(C=O)cc1COc1c(Cl)cc(Cl)cc1Cl | 57 nM | > 50% |
| Cc1nn(-c2ccccc2)c2nc(C(F)(F)F)cc(C(F)(F)F)c12 | 231 nM | > 50% |

The remaining lines, values ahead:

| IC50 (Cytochrome P450 1A2) | inhibition at 0.3 µM (CYP1A2) | Structure (SMILES) |
| --- | --- | --- |
| 112 nM | > 50% | N#CC1=C(N)Oc2c(ccc3ccccc23)C1c1ccc2c(c1)OCC2 (centres undefined) |
| 22 nM | > 50% | Brc1ccc2c3c(cccc13)-c1nc3ccccc3nc1-2 |
| – | > 50% | O=c1cc(-c2ccccc2)oc2c1ccc1ccccc12 [ALPHA-NAPHTHOFLAVONE] |
| 48 nM | > 50% | C(=N\n1cnnc1)/c1ccc(-c2cccc3ccccc23)o1 |
| 16 nM | > 50% | Cn1c(=O)cc2c3c(c(N)ccc31)C(=O)c1ccccc1-2 |

— ChEMBL document CHEMBL3217706, “Identification of CYP1A2 ligands by structure-based and ligand-based virtual screening” (Medchemcomm, 2011)
